Data on 15 compounds can be found in ChEMBL document CHEMBL1201862, “PubChem BioAssay data set” (2004).

The source made the active and inactive calls. Cut-off read from the data, not from the text of the source: actives have a measured EC50 and inactives only a lower limit.

Test system in one experiment: not listed separately
Briefly: C. albicans growth with fluconazole, confirmation, fluorescence, retest (AID 2467). In kind it is functional, cell-based.
`Cc1cccc(/N=N/c2c(C)[nH]n(C(N)=S)c2=O)c1C`: the EC50 was 3.07 µM (active).
On the same count and under the same terms, then `O=C1CCCCC/C1=N/Nc1ccc(OCc2ccccc2)cc1`, with > 38 µM (not active).

The target in a further experiment is T1, RNA-binding protein pos-1 (Caenorhabditis elegans, UniProt G5EF15).
T1 sequence (G5EF15 whole entry): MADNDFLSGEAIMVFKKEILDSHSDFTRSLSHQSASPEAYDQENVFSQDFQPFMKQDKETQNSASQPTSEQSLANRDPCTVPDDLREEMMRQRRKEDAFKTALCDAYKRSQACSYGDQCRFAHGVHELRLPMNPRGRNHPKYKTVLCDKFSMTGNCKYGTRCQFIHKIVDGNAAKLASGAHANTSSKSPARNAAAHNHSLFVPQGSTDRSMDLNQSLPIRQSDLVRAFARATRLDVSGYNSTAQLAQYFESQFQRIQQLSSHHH
Briefly: inhibitors of POS-1/mex-3 RNA binding, dose response, biochemical, fluorescence polarization (AID 1964).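 Note: purified POS-1 fused to maltose binding protein made in E. coli; potency of compounds blocking POS-1 binding to fluorescent RNA.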 In general terms: In fluorescence polarisation assays a small probe gives low polarisation when free and higher when bound to something large.
As for `N#Cc1c(NC(=O)/C=C/C(=O)O)sc2c1CCN(Cc1ccccc1)C2`, the EC50 was 31 µM (active).
The same measure, in the same setting: as for `CCN(C(=O)c1cc(Cl)ccc1OC)C1CCCCC1`, the figure is > 300 µM (not active).
With `CCOC(=O)C1Nc2ccc(C)cc2C2C=CCC12` (stereo not given), the EC50 was > 300 µM (not active).
With `O=S(=O)(Nc1ccc(O)c2ccccc12)c1ccc(Br)cc1`, the EC50 was 36 µM (active).
Same read-out and setting: as for `O=C(O)c1ccc2c(c1)C1C=CCC1C(c1ccncc1)N2` (stereo not given), the figure is 58.5 µM (active); as for `COc1cc(C2C(C#N)=C(N)OC3=C2C(=O)CCC3)cc2c1OCO2` (stereo not given), > 300 µM (not active); as for `C=CCn1c(Cc2nc3ccccc3[nH]2)n[nH]c1=S`, 80.2 µM (active).
Take `CC(=O)C(=NNc1nc2c([nH]1)c(=O)n(C)c(=O)n2C)C(C)=O`: the half-maximal effective concentration (EC50) is 73.9 µM (active).
`CC(C)CNC(=O)C1Nc2ccc(C(F)(F)F)cc2C2C=CCC12` (stereo not given): the 50% effective concentration (EC50) was > 300 µM (not active).
Still for that read-out and setting: as for `COC(=O)c1cc(C(=O)OC)cc(-n2c(C)cc(C(=O)COC(=O)CNS(=O)(=O)c3ccc(C)cc3)c2C)c1`, the figure is > 300 µM (not active); as for `Cc1cc(/C=C2\C(=O)NC(=O)N(c3cccc(F)c3)C2=O)c(C)n1-c1ccc(C(=O)O)c(Cl)c1`, > 300 µM (not active); as for `Cc1cccc(NC2=NC(=O)CS2)c1`, > 300 µM (not active).
On the same count and under the same terms, then `COc1cccc(N/N=C2/C(=O)Nn3c2nc(C)cc3=O)c1`, with > 300 µM (inconclusive).

Test system in another experiment: not listed separately
Kind of experiment: NIH-3T3 fibroblast cytotoxicity, dose response, cytotoxicity control, cell-based, fluorescence, Alamar Blue, secondary assay (AID 2327).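 Note: NIH-3T3 mouse fibroblasts cultured with fluconazole at 8 µg/mL.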 Format: functional. (The colour change of resazurin is a common sign of viable cells or microbes.)
Take `Cc1cccc(/N=N/c2c(C)[nH]n(C(N)=S)c2=O)c1C`: the EC50 is > 150 µM (inactive).
On the same count and under the same terms, then `O=C1CCCCC/C1=N/Nc1ccc(OCc2ccccc2)cc1`, with > 150 µM (inactive).

A further experiment has as its target T2, Zinc finger protein mex-5 (Caenorhabditis elegans, UniProt Q9XUB2).
T2 sequence (Q9XUB2 whole entry): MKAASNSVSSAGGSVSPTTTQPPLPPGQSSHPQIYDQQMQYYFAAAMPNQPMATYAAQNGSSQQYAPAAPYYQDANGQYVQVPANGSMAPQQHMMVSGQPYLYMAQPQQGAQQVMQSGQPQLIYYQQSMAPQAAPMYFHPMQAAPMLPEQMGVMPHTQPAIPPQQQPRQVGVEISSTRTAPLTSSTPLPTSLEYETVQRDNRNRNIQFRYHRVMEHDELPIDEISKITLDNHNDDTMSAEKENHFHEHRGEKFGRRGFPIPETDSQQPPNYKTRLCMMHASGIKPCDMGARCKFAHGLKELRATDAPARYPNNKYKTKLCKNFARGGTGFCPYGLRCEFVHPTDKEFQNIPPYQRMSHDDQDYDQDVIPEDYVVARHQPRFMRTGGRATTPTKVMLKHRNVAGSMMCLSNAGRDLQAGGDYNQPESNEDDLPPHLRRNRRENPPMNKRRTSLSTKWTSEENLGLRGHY
Briefly: MEX-5/TCR-2 RNA interaction inhibitors, dose response, biochemical, C. elegans, fluorescence polarization (AID 1960).
`N#Cc1c(NC(=O)/C=C/C(=O)O)sc2c1CCN(Cc1ccccc1)C2`: the EC50 was 25.5 µM (active).
Same read-out and setting: then `CCN(C(=O)c1cc(Cl)ccc1OC)C1CCCCC1`, with > 300 µM (not active); and `CCOC(=O)C1Nc2ccc(C)cc2C2C=CCC12` (stereo not given), with > 300 µM (not active); and `O=S(=O)(Nc1ccc(O)c2ccccc12)c1ccc(Br)cc1`, with 22.9 µM (active).
In the case of `O=C(O)c1ccc2c(c1)C1C=CCC1C(c1ccncc1)N2` (stereo not given), the 50% effective concentration (EC50) was 24.3 µM (inconclusive).
Consider `COc1cc(C2C(C#N)=C(N)OC3=C2C(=O)CCC3)cc2c1OCO2` (stereo not given), for which the half-maximal effective concentration (EC50) is > 300 µM (not active).
For the compound `C=CCn1c(Cc2nc3ccccc3[nH]2)n[nH]c1=S`, the EC50 was 1.1 µM (active).
Turning to `CC(=O)C(=NNc1nc2c([nH]1)c(=O)n(C)c(=O)n2C)C(C)=O`, the EC50 was 12.7 µM (active).
Consider `CC(C)CNC(=O)C1Nc2ccc(C(F)(F)F)cc2C2C=CCC12` (stereo not given), for which the concentration giving a half-maximal response (EC50) is given as > 300 µM (not active).
The same measure, in the same setting: as for `COC(=O)c1cc(C(=O)OC)cc(-n2c(C)cc(C(=O)COC(=O)CNS(=O)(=O)c3ccc(C)cc3)c2C)c1`, the figure is > 300 µM (not active); as for `Cc1cc(/C=C2\C(=O)NC(=O)N(c3cccc(F)c3)C2=O)c(C)n1-c1ccc(C(=O)O)c(Cl)c1`, > 300 µM (not active); as for `Cc1cccc(NC2=NC(=O)CS2)c1`, > 300 µM (not active).
In the case of `COc1cccc(N/N=C2/C(=O)Nn3c2nc(C)cc3=O)c1`, the EC50 is < 0.06 µM (inconclusive).

One may read the EC50 as the concentration at which the effect is half-maximal.
